In patent publication US7323541B2, “Polypeptide DNA thereof and use of the same” (Takeda Pharmaceutical Company Limited, priority 2001, dated 2008):
Positions count from the first letter of the chain named. Where no end group is shown, it is not given here.

Columns and labels:
[1] = molecular target: T1, TGR23-1 expressing CHO cells (Homo sapiens, UniProt Q6W5P4); experiment: Enhancing activity of intracellular cAMP production; assay type: cell-based
T1 construct: the clones having the cDNA of TGR23-1, which is contained in pTB2173, were selected; expressed in transfected cells; host or cells: hamster CHO/dhfr- cells, vector pAKKO-111H (pAKKO-TGR23-1), clones No. 49 and No. 52
T1 sequence (Q6W5P4 1-371): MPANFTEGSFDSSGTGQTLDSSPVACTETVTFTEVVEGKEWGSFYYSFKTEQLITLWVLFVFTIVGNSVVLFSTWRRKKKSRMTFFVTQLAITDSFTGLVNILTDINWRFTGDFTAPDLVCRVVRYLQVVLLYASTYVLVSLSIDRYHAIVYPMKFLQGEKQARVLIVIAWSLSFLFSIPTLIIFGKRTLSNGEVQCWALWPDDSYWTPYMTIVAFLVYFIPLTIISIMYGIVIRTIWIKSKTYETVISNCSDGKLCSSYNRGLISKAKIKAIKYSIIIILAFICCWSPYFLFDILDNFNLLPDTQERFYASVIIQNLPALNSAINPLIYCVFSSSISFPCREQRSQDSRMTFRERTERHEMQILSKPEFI
Method: (§1) The CHO/TGR23-2 cells prepared in Example 1 and selected in Example 2 were plated on 24-well plate at 7×10^4 cells/well and cultured for 48 hours. The cells were washed with αMEM medium (pH7.5) containing 0.2 mM 3-isobutyl-methylxanthine, 0.05% BSA and 20 mM HEPES (hereafter, αMEM medium (pH7.5) containing 0.2 mM 3-isobutyl-methylxanthine, 0.05% BSA and 20 mM HEPES may be referred to as a reaction buffer). Subsequently, 0.5 ml of the reaction buffer was added, and the solution was incubated for 30 minutes in the incubator. The reaction buffer was removed and 0.25 ml of the reaction buffer was freshly added to the cells. Then, the cells were admixed with a sample and 0.25 ml of the reaction buffer containing 2 μM forskoline, and incubated at 37° C. for 30 minutes. Intracellular cAMP was extracted by removing the reaction solution and adding 0.5 ml of the solution for cell lysis attached with cAMP EIA Kit (Applied Biosystems). The cAMP level in the extract was quantified with the same kit. Based on this measured value, a calculation was made using the following formula, and the enhancing/inhibiting activity for cAMP production was represented by % of control. The activity of the sample-adding group was calculated using a control value configured in each plate. % of control=(X−C)/(T−C)×100
(§2) X: The cAMP level in the sample-adding group
(§3) T: The means of the cAMP level in 3 wells of positive control (no sample, with stimulus of forskoline)
(§4) C: The means of the cAMP level in 3 wells of negative control (no sample, without stimulus of forskoline)
Human TGR23-2 ligand (1-20) prepared by the method described in Example 17 was administered to TGR23-1 expressing CHO cells and TGR23-2 expressing CHO cells at a variety of concentrations according to the method described in Example 3, and the enhancing activity of intracellular cAMP production was determined. […]

[2] = molecular target: T2, TGR23-2 expressing CHO cells (Homo sapiens, UniProt Q6W5P4, N107I/Q344R); experiment: as above; assay type: cell-based
T2 construct: the clones having the cDNA of TGR23-2, which is contained in pTB2174, were selected; expressed in transfected cells; host or cells: hamster CHO/dhfr- cells, vector pAKKO-111H (pAKKO-TGR23-2)
T2 sequence (Q6W5P4 1-371 N107I/Q344R): T1 sequence (Q6W5P4 1-371) with N107I, Q344R
Method: as §1, §2, §3, §4
In addition, for the same sample, in accordance with the method shown in Example 4, an arachidonic acid metabolite releasing activity was assayed.
Four microlitters each of the above-mentioned HPLC active fractions of rat whole brain extracts (Fraction numbers 18, 20 and 22 to 23) was added to 100 μl of 0.2 M ammonium acetate and incubated at 37° C. for 2 hours with 3 μg of Pronase. Subsequently, Pronase added, was inactivated by heating in boiling water for 10 minutes. To this solution, one ml of distilled water containing 0.05 mg of BSA and 0.05 mg of CHAPS was added. Further, it was lyophilized. For the lyophilized sample, enhancing activity for intracellular cAMP production was assayed by adding to TGR23-2 expressing CHO cells according to the method shown in Example 3.
Human TGR23-2 ligand (1-20) prepared by the method described in Example 17 was administered to TGR23-1 expressing CHO cells and TGR23-2 expressing CHO cells at a variety of concentrations according to the method described in Example 3, and the enhancing activity of intracellular cAMP production was determined.
Further, human TGR23-2 ligand (1-20) and rat TGR23-2 ligand (1-18) prepared by the method described in Example 19 were administered to TGR23-1 expressing CHO cells and TGR23-2 expressing CHO cells at a variety of concentrations, and the same assay as described above was carried out under the condition of no forskolin. A calculation was made using the following formula, and the enhancing activity for cAMP production was represented by % of control: % of control=X/C×100;
X: The cAMP level in the sample-adding group; and
C: Control (no sample, without stimulus of forskoline).

enhancing activity of intracellular cAMP production ([1]; with forskolin) | Sequence | enhancing activity of intracellular cAMP production ([1]; no forskolin) | enhancing activity of intracellular cAMP production ([2]; no forskolin) | enhancing activity of intracellular cAMP production ([2]; with forskolin)
 | SFRNGVGSGVKKTSFRRA [rat TGR23-2 ligand (1-18), Ser-Phe-Arg-Asn-Gly-Val-Gly-Ser-Gly-Val-Lys-Lys-Thr-Ser-Phe-Arg-Arg-Ala] | enhance the intracellular cAMP production | enhance the intracellular cAMP production | specifically exhibits an enhancing activity for cAMP production
clearly enhances cAMP production | SFRNGVGTGMKKTSFQRAKS [human TGR23-2 ligand (1-20)] | enhance the intracellular cAMP production | enhance the intracellular cAMP production | clearly enhances cAMP production
